Entries after “also recorded” stand apart in the source; their conditions may differ.
Tests used:
[1] = tested on: β1 receptors of the heart versus β2 receptors (atrium / trachea); test: Cardioselectivity: antilog pA2 (atrium)-pA2 (trachea); assay type: cell-based, guinea pig; settings: for cardioselectivity (in words): qualitative statement; for Cardioselectivity antilog pA2 (A)-pA2 (T): antilog of pA2 (atrium) - pA2 (trachea), guinea pig
Description: Most commercial β-adrenolytics of similar structure influence both β1 and β2 receptors; that is, they inhibit the effect of the sympathetic nervous system on the heart as well as on the peripheral blood vessels or the bronchial muscles. Blocking of the β2 receptors leads to an increase in tonus of the smooth muscle with broncho spasms and increased resistance of the peripheral vessels. […] This is because β2 receptor-blocking substances are not to be administered in bronchial diseases (such as asthma) because of their broncho-constrictive action. However, treatment of […].
pA2 The strength of a beta-adrenoceptor blocker. Corresponds to the negative logarithm of the molar concentration of an antagonist which requires a doubling of the molar concentration of the agonist to achieve a given effect on isolated tissue. As test tissue are used the atrium and trachea of guinea pigs.
Cardioselectivity: antilog pA2 (atrium)-pA2 (trachea)

[2] = biological target: T1, beta-adrenoceptor (atrium) (Cavia porcellus, UniProt H0W3H1); test: pA2 as beta-adrenoceptor blocker on isolated guinea pig atrium; assay type: cell-based
T1 construct: As test tissue are used the atrium and trachea of guinea pigs; from tissue; host or cells: isolated guinea pig atrium
T1 sequence (H0W3H1 1-470): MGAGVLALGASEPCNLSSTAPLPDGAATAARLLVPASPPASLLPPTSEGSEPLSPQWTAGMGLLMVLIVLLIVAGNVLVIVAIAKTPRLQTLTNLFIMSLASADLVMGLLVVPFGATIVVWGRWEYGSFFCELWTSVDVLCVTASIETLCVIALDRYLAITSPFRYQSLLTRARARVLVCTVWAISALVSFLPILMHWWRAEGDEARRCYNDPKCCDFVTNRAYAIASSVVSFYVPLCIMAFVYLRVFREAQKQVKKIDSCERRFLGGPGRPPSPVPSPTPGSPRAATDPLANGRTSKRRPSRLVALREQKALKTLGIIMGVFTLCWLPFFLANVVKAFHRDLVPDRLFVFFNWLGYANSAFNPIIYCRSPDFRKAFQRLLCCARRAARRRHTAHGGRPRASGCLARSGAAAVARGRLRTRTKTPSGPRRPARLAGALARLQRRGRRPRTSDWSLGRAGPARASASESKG
Description: (§1) The terms used in Table 1 are defined as follows (from B. J. Clark: "Pharmacology of beta-adrenoceptor blocking agents" in "beta-Adrenoceptor blocking agents", P. R. Saxena and R. P. Forsyth edition. pA2 The strength of a beta-adrenoceptor blocker. Corresponds to the negative logarithm of the molar concentration of an antagonist which requires a doubling of the molar concentration of the agonist to achieve a given effect on isolated tissue. As test tissue are used the atrium and trachea of guinea pigs.

[3] = biological target: T2, beta-adrenoceptor (trachea) (Cavia porcellus, UniProt Q8K4Z4); test: pA2 as beta-adrenoceptor blocker on isolated guinea pig trachea; assay type: cell-based
T2 construct: As test tissue are used the atrium and trachea of guinea pigs; from tissue; host or cells: isolated guinea pig trachea
T2 sequence (Q8K4Z4 whole entry): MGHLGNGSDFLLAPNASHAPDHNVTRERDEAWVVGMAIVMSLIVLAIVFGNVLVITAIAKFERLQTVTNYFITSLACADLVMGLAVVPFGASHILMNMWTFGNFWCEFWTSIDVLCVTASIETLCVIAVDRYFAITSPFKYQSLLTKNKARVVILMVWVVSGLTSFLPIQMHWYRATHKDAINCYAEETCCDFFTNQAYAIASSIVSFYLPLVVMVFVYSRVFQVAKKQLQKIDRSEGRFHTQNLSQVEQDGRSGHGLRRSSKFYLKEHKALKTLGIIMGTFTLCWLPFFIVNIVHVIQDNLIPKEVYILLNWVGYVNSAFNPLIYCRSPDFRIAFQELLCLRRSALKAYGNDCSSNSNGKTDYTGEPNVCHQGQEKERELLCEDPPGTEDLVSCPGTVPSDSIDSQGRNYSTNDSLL
Description: as §1

[4] = tested on: beta-agonistic action (heart frequency); test: Intrinsic sympathomimetic activity (ISA): increase of heart frequency in reserpinized rats relative to isoprenaline; assay type: in vivo, rat; settings: for ISA % isoprenaline action: increase of heart frequency, reserpinized rats, isoprenaline maximum = 100%
Experimental: ISA: "Intrinsic sympathomimetic activity" (betaa -agonistic action). The percent increase of the heart frequency which is induced by a substance, referred to the maximum reaction of isoprenaline (100%). The measurements are carried out on reserpinolized rats which no longer show a sympathic tonus.

beta-adrenolytic action = test: Half-life of the beta-adrenolytic action in rabbits after i.v. application; assay type: in vivo, rabbit; settings: for t1/2 of beta-adrenolytic action: rabbits, i.v., time at which action has decreased to one half
Description: […] : Time at which the beta-adrenolytic action of a substance in rabbits after i.v. application has decreased to one half.

Compound | cardioselectivity (in words) [1] | Kb [2] | Kb [3] | Cardioselectivity antilog pA2 (A)-pA2 (T) [1] | ISA % isoprenaline action [4] | Local anesth. action (Local anesthetic action) | t1/2 of beta-adrenolytic action (beta-adrenolytic action) | agonistic / isoprenaline action (in words) ([4]; qualitative statement) | cardioselectivity (in words) ([1]; listed as (c)) | half-life (in words) (beta-adrenolytic action; qualitative statement)
CCCCCCCCC(=O)Nc1ccc(OCC(O)CNC(C)(C)C)c(-c2nnco2)c1 (centres unmarked) [Example 5, 2-[2-(2-hydroxy-3-tert.-butylamino-propoxy)-5-n-nonanoylaminophenyl]-1,3,4 oxadiazole] | preferred for their selectivity |  |  |  |  |  |  |  |  | 
CC(=O)Nc1ccc(OCC(O)CNC(C)(C)C)c(-c2nnco2)c1 (centres unmarked) [Example 1, 2-[2-(2-hydroxy-3-tert.-butylamino-propoxy)-5-acetamido-phenyl]-1,3,4 oxadiazole] | preferred for their selectivity | 209 nM | 4170 nM | 17 | 0% | 0 | 5 h |  |  | 
CC(C)(C)NCC(O)COc1ccccc1-c1nnco1 (centres unmarked) [Comparison Substance 2, 2-[2-(2-hydroxy-3-tert.butylamino-propoxy)-phenyl]-1,3,4-oxadiazole, reference compound] |  | 50.1 nM | 158 nM | 3 | 79% | 0 |  | high isoprenaline action |  | 
CCCC(=O)Nc1ccc(OCC(O)CNC(C)C)c(C(C)=O)c1 (centres unmarked) [Comparison Substance 1, Acebutolol, reference compound] |  |  | 9770 nM |  | 27% | present | 1.6 h |  |  | 
CCCCCCCCCC(=O)Nc1ccc(OCC(O)CNC(C)(C)C)c(-c2nnco2)c1 (centres unmarked) [Example 6, 2-[2-(2-hydroxy-3-tert.-butylamino-propoxy)-5-n-decanoylamino-phenyl]-1,3,4oxadiazole] | preferred for their selectivity | 79.4 nM | 1580 nM | 20 | 0% | 0 |  |  |  | 
CCCCCCC(=O)Nc1ccc(OCC(O)CNC(C)(C)C)c(-c2nnco2)c1 (centres unmarked) [Example 2, 2-[2-(2-hydroxy-3-tert.-butylamino-propoxy)-5-n-heptanoylaminophenyl]-1,3,4oxadiazole] |  | 50.1 nM | 1260 nM | 25 | 0% | 0 | 3.5 h |  | preferred for their selectivity; also recorded: highly selectively active | particularly long half-life
CCCCCCCC(=O)Nc1ccc(OCC(O)CNC(C)(C)C)c(-c2nnco2)c1 (centres unmarked) [Example 4, 2-[2-(2-hydroxy-3-tert.-butylamino-propoxy)-5-n-octanoylaminophenyl]-1,3,4 oxadiazole] | preferred for their selectivity | 39.8 nM | 1260 nM | 32 | 0% | 0 |  |  |  | 

From US4409232A, “Substituted oxadiazoles, method for the production thereof, compositions containing them and method of use thereof” (priority 1980, dated 1983)
